Assay results: US20220017484A1, “INHIBITOR OF BRUTON TYROSINE KINASE” (BEIJING RECIPROCAPHARMACEUTICALS CO., LTD., priority 2018, published 2022)

Tests used:
Btk [1] = target: T1, Btk (Homo sapiens, UniProt Q06187); assay: Analysis of in vitro inhibitory activity of Btk (cell-free TR-FRET kinase assay); assay type: biochemical; conditions: for IC50: cell-free TR-FRET, ATP at Km, 1 h, read-out: Efficacy (Btk IC50); for inhibitory effects against Btk (in words): summary of Table 1 efficacy data
Protocol: In a cell-free kinase assay, the method described below or a similar method was used to determine the half inhibitory concentration (IC50) of the compound of the present invention on Btk.
Btk kinase activity was determined using a time-resolved fluorescence resonance energy transfer (TR-FRET) methodology. Measurements were performed in a reaction volume of 50 μL using 96-well assay plates. […] The reaction was quenched by the addition of 1.2 equivalents of EDTA (relative to divalent cation) in […] of 1× Lance buffer (Perkin-Elmer). Streptavidin-APC (Perkin-Elmer) and Eu-labeled p-Tyr100 antibody (Perkin-Elmer) in 1× Lance buffer were added in a volume of 25 μL to give final concentrations of 100 nM and 2.5 nM, respectively. The mixture was allowed to incubate for 1 h. The TR-FRET signal was measured on a multimode plate reader at an excitation wavelength (λEx) of 330 nm and detection wavelengths (λEm) of 615 and 665 nm. The activity was determined by the ratio of fluorescence at 665 nm to that at 615 nm. For each compound, the enzyme activity was measured in the presence of different concentrations of the compound. Negative control reactions were performed in the absence of inhibitor in replicates of six, and two no-enzyme controls were used to determine baseline fluorescence levels. IC50 was obtained by fitting using the program Batch Ki (Kuzmic, et al. (2000), Anal. Biochem. 286:45-50).
The Example compounds 1-50 of the present invention were synthesized according to the above Synthetic Schemes I to VII. In the analysis of in vitro inhibitory activity of Btk, the IC50 values of the Example compounds 1-50 of the present invention were determined. The IC50 values are given according to the interval of the IC50 value, where “+++” means IC50<100 nM; “++” means 100 nM≤IC50<1000 nM; and “+” means 1000 nM≤IC50<10000 nM.

OCI-LY7 cells = assay: Cell viability assay (CellTiter-Glo, 72 h); assay type: cell-based; conditions: Homo sapiens, read-out: Results from inhibition of OCI-LY7 cells (IC50)
Protocol: An in vitro cell viability assay was conducted using the compounds of Examples 1-50 following the steps below:
1. After OCI-LY7 cells were recovered, they were cultured at 37° C., 5% CO2, and 95% humidity.
2. For the compounds of Examples 1-50, 8 compound solutions at different concentrations were prepared, respectively. 50 μL of the compound solution at each concentration was added to a 96-well black plate.
3. The cell concentration was adjusted to about 30,000 cells/mL. 100 μL of cell suspension was added to the 96-well plate, and mixed well. The final cell density was about 3,000 cells/well.
4. The 96-well plate was placed at 37° C., 5% CO2, and 95% humidity for 72 h.
5. The cell survival rate was measured by the method of CellTiter-Glo® Luminescent Cell Viability Assay (Promega, Cat #G7572). The fluorescence data were read on a microplate reader (EnVision™, a multi-function microplate detector, PerkinElmer).
6. The obtained fluorescence data were analyzed using GraphPad Prism software. The cell survival rate was calculated for each example compound at each concentration, and the IC50 interval of each example compound was obtained.

Btk [2] = target: T1, Btk; assay: Covalent inhibition assay on BTK (fluorescent probe labeling, SDS-PAGE scanning); assay type: binding; parameters: purchased carna 08-180; conditions: for binding mode to recombinant BTK: 0.5 μM and 5 μM, 1 h incubation; for inhibition of the labeling of BTK by the fluorescent probe: 1 h incubation with BTK, then probe 1 h, 1% DMSO control
Protocol: FIG. 1 is a graph showing the scanning results from SDS-PAGE electrophoresis after the compounds of Examples 23 and 26 at two concentrations (0.5 μM and 5 μM) were incubated with BTK for 1 h, and then a probe prepared according to Sci. Rep. 2015, 5, 16136 was added and incubated for 1 h.
This assay was carried out using the compounds of Examples 23 and 26. The reagents used are as follows:
BTK kinase: brand name: carna, product number: 08-180, concentration: […];
BTK enzyme activity buffer: 1× kinase buffer+1 mM DTT+5 mM MgCl2+50 nM SEB;
BTK probe (100 μM): prepared according to Sci. Rep. 2015, 5, 16136 (Pan Zhengying, et al.);
The compounds of Examples 23 and 26: prepared as described above, and prepared at two concentrations (0.5 μM/5 μM) respectively.
The steps of the assay are as follows:
1. The sample order was 1% DMSO, 0.5 μM compound of Example 23, 5 μM compound of Example 23, 0.5 μM compound of Example 26, and 5 μM compound of Example 26. The compounds, BTK, probe and 2× loading buffer were added to 5 200 μl EP tubes using a pipette.
2. The final concentrations of the compounds of Examples 23 and 26 were 0.5 μM and 5 μM, and the control group was 1% DMSO. The compounds were first prepared with DMSO to 100× the above final concentrations, and diluted ×40 with BTK enzyme activity Buffer. For the reaction, 4 μl/well of the compound was added to the 10 μl system using a pipette to reach its final concentration. For 1% DMSO, the stock solution was diluted ×40 with BTK enzyme activity Buffer.
3. The BTK (200 ng/μl) was diluted to 10 ng/μl, and the probe (100 μM) was diluted to 2.5 μM. They were placed on ice for later use, and the probe was protected from light.
4. To each tube was added 4 μl of BTK, followed by 4 μl of the Example compound. After 1 h incubation, the probe was added, and then incubated for 1 h in the dark.
5. 2× loading buffer was prepared. After the probe was incubated, 10 μl of the 2× loading buffer was added to each well, mixed well, and heated at 100° C. for 10 min to prepare the sample.
6. 10 μl (containing 20 ng of BTK, and 0.5 μM probe) was loaded. Scanning was performed after SDS-PAGE. The order of samples was the order of spotting.
If it is a compound that reversibly binds to BTK, the probe would bind to the released BTK during 1 h incubation with a mixture of the compound and BTK, leading to a fluorescent band.

T1 sequence (Q06187 whole entry): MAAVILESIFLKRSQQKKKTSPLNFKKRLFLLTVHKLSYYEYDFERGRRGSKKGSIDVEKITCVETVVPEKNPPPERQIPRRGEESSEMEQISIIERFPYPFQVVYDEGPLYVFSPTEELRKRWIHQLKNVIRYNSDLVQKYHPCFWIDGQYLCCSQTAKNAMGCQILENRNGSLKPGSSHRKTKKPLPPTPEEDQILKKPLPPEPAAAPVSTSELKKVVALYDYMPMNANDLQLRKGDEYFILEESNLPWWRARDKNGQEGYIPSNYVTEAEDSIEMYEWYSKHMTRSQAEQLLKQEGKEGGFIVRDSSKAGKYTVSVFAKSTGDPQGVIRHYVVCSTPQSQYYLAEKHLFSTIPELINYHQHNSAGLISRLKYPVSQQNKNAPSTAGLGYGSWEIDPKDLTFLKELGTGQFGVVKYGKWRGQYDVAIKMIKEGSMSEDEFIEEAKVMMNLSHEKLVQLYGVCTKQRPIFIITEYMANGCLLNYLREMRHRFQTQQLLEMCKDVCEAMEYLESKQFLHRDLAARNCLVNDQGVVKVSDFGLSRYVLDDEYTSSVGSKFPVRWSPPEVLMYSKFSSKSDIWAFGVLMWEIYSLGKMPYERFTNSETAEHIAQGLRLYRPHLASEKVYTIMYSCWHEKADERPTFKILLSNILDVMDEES

| IC50 (Btk [1]) [nM] | IC50 (OCI-LY7 cells) [nM] | binding mode to recombinant BTK (Btk [2]) | inhibition of the labeling of BTK by the fluorescent probe (Btk [2]; compound 0.5 μM) | inhibition of the labeling of BTK by the fluorescent probe (Btk [2]; compound 5 μM) | SMILES | inhibitory effects against Btk (in words) (Btk [1]) |
| --- | --- | --- | --- | --- | --- | --- |
| < 100 | < 500 | irreversibly covalently binds | completely inhibit | completely inhibit | C=CC(=O)N(C)c1cccc(Nc2ncc3cc(-c4c(C)cc[nH]c4=O)ccc3n2)c1 [Example 23] | particularly excellent inhibitory effects |
| < 100 | < 500 | – | – | – | [2H]C([2H])([2H])C([2H])([2H])N(C(=O)C=C)c1cccc(Nc2ncc3cc(-c4c(C)cc[nH]c4=O)ccc3n2)c1 [Example 47] | – |
| < 100 | < 500 | – | – | – | CC#CC(=O)N(CC)c1cccc(Nc2ncc3cc(-c4c(C)cc[nH]c4=O)ccc3n2)c1 [Example 33] | particularly excellent inhibitory effects |
| 1000 to 10000 | < 500 | – | – | – | Cc1ccn(-c2cccc(C(F)(F)F)c2)c(=O)c1-c1ccc2nc(Nc3cccc(N)c3)ncc2c1 [Example 12] | – |
| < 100 | < 500 | – | – | – | C=C(F)C(=O)N(CC)c1cccc(Nc2ncc3cc(-c4c(C)cc[nH]c4=O)ccc3n2)c1 [Example 35] | – |
| < 100 | < 500 | irreversibly covalently binds | completely inhibit | completely inhibit | C=CC(=O)N(CC)c1cccc(Nc2ncc3cc(-c4c(C)cc[nH]c4=O)ccc3n2)c1 [Example 26] | particularly excellent inhibitory effects |
